# From US20150072020A1, “Dexanabinol or a Derivative Thereof for Use in the Treatment of Cancer in Dose Ranges of 2-30 mg/kg” (E-THERAPEUTICS PLC, priority 2012, published 2015)
# Experiments:
# [1] = target: CDK2 (Homo sapiens, UniProt P24941); assay: direct assay of dexanabinol against CDK2; type: biochemical; conditions: when directly assayed; heading names CDK2/A
# Source text: (§1) However, we believe that CDKs are affected indirectly, in circumstances where more of the intracellular network that might mediate such effects remains present.
# [2] = target: CDK5 (Homo sapiens, UniProt Q00535); assay: direct assay of dexanabinol against CDK5; type: biochemical; conditions: when directly assayed; heading names CDK5/p25
# Sequence of CDK5 (Q00535 whole entry, species assumed): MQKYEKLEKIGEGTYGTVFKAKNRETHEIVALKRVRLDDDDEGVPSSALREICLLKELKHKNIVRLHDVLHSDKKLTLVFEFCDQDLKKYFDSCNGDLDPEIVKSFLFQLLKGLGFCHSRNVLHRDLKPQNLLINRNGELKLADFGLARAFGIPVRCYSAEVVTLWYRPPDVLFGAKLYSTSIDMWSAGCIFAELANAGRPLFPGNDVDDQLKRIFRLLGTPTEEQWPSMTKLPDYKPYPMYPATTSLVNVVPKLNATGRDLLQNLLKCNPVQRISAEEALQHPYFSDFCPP
# Sequence of CDK5 (Q15078 99-307 partner limits assumed, species assumed): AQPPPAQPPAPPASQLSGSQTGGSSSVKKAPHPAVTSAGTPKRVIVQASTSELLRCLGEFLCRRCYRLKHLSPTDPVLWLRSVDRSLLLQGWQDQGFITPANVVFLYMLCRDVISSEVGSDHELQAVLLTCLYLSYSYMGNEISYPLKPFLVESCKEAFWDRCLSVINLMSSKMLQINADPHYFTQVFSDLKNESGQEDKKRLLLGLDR
# Source text: as §1
compound,measurement,setting,value
"CCCCCCC(C)(C)c1cc(O)c2c(c1)OC(C)(C)[C@H]1CC=C(CO)C[C@H]21 [Dexanabinol, 1, 1 dimethyl heptyl-(3S, 4S)-7-hydroxy-Δ^6-tetrahydrocannabinol]",direct activity against CDK2,[1],no significant direct activity
same,direct activity against CDK5,[2],no significant direct activity
